Test results as given in patent publication US12070445B2, “System and assay for monitoring production/release of membrane-lytic toxins in bacteria and compounds for modulating same” (priority 2021, dated 2024).
Entries after “also recorded” stand apart in the source; their conditions may differ.

Tested on: WT S. aureus (RN6390b)
Experiment: Microtiter plate (96-well) vesicle lysis assay with WT S. aureus
Type: cell-based
Conditions: 100 nM 1, 10 μM 5, 20 μM 6, 10 μM AIP
Experimental: Compound handling and preparation. OdDHL and BHL (Hodgkinson et al., 2011), S. aureus AIP and peptide derivatives 1-5 (Tal-Gan et al., 2013, Tal-Gan et al., 2016, Vasquez and Blackwell, 2019), and compounds 7-9 (Welsh and Blackwell, 2016a, Boursier et al., 2018, Manson et al., 2020) were synthesized using previously described methods. PQS and compound 6 were purchased from Millipore Sigma and AK Scientific respectively. Compounds were stored dry at −20° C. until needed and then dissolved in DMSO. DMSO stock solutions were prepared at concentrations that varied with compound potency and apparent solubility. Final in-well compound concentrations for 96-well vesicle lysis assays, unless noted otherwise, were: 10 μM for AIP, OdDHL, and PQS; 1 mM for BHL; 100 nM for 1-4; 10 μM for 5; 20 μM for 6; 100 μM for 7 and 8; and 200 μM for 9.
Production of phospholipid vesicles with encapsulated calcein. Large unilamellar vesicles (LUVs) were produced by adapting a freeze-thaw and vesicle extrusion procedure (Mayer et al., 1986). Briefly, stock solutions of phospholipids (DOPC, DPPC, DPPE, or cholesterol) in chloroform were mixed to the desired lipid compositions (70 mol % DOPC/30 mol % cholesterol for S. aureus vesicles or 68 mol % DPPC, 30 mol % cholesterol, 2 mol % DPPE for P. aeruginosa vesicles), and the chloroform was removed using an N2 stream or rotary evaporation followed by drying for at least one hour under vacuum. Self-quenching solutions of calcein were prepared by combining calcein and PBS or a specially prepared calcein buffer (1 mM EDTA, 10 mM Trisbase, and 100 mM NaCl; pH 8) to a calcein concentration of […]. The resulting solutions were titrated with 10 M aqueous NaOH until all calcein was dissolved and the solution reached pH 7.4 or pH 8 for PBS and the calcein buffer, respectively. The resulting calcein solutions were added to the dried phospholipid films (PBS for S. aureus formulations and the calcein buffer for the P. aeruginosa formulations) for a final lipid concentration of 5 mg/mL. The resulting lipid solutions were vortexed vigorously and briefly sonicated in a bath sonicator to form a turbid vesicle suspension. The vesicle suspensions were then freeze-thawed five times by alternately immersing them into an iPrOH/dry ice bath and a warm water bath (˜60° C.). Vesicles prepared for continuous time-course experiments were passed at least 5 times through a 100 nm polycarbonate filter using a Mini-prep extruder. Vesicles prepared for the high-throughput screen were passed through the filter 3 times. The resulting vesicles were then separated from external, unloaded calcein using a hand-packed Sephadex-G50 size exclusion chromatography column. The concentration of phospholipid in the solution was quantified using ^31P NMR (per the above protocol), and the phospholipid concentration was adjusted to 2 mM for unsaturated lipid solutions and 1 mM for saturated lipid solutions in their respective buffers. The resulting vesicles were characterized by dynamic light scattering and found to have a hydrodynamic diameter of ˜150 nm (FIGS. 3A-3C), which agrees with previous reports describing vesicle production using a similar method (Lapinski et al., 2007).
Microtiter plate vesicle lysis assays. Portions of media (2 or 10 mL) were inoculated with individual bacterial colonies and allowed to shake overnight. From these overnight cultures, subcultures were prepared by diluting the cultures 1:50 (v/v) in fresh BHI for S. aureus or 1:100 (v/v) in fresh LB for P. aeruginosa. An aliquot of each subculture (178 μL) was added to 20 μL of vesicle suspension and 2 μL of compound solution (dissolved in DMSO at 100× working concentration) in a clear-bottomed, black 96-well microtiter plate (Corning 3904). For controls, DMSO (vehicle) or Triton X-100 (1% final concentration) was substituted for compound. […]

CC(C)c1ccc(S(=O)(=O)c2nnn3c2nc(O)c2ccccc23)cc1 [Compound 6, savirin]
effect on vesicle lysis (calcein fluorescence over 12 hr): wholly abrogated vesicle lysis; also recorded: repress vesicle lysis
